Data taken from the supplement of paper PMC10307832.

Assays:
Assay in all cases: relative viability (nuclei count vs DMSO), 5 days (fraction); higher = more cells survive
[1] = compound: CN1C=C(C2=CC=CC=C21)/C=C\3/C4=C(C=CC=N4)NC3=O + N=C(N)NC(=N)NCCc1ccccc1 [Phenformin] (partner 250 µM)
Outline: (§1)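 Relative viability is defined as nuclei in treated wells over nuclei in vehicle wells. Duplicate plates were run and medians reported. Lung cancer cell lines in 1536-well plates were dosed by pin tool one day after seeding, with one drug or with a fixed anchor-drug dose plus five library-drug doses (not always all listed) in √10 steps, and nuclei were counted after 5 days.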

[2] = compound: CC(=O)Nc1cccc(-n2c(=O)n(C3CC3)c(=O)c3c(Nc4ccc(I)cc4F)n(C)c(=O)c(C)c32)c1 [Trametinib] + COc1cccc2cc(-c3nc([C@H]4CC[C@H](C(=O)O)CC4)n4ncnc(N)c34)[nH]c12 [OSI-027] (partner 0.5 µM)
Outline: as §1

[3] = compound: CC(=O)Nc1cccc(-n2c(=O)n(C3CC3)c(=O)c3c(Nc4ccc(I)cc4F)n(C)c(=O)c(C)c32)c1 [Trametinib] + C[C@@H](Oc1cc(-c2cnn(C3CCNCC3)c2)cnc1N)c1c(Cl)ccc(F)c1Cl [Crizotinib] (partner 1 µM)
Outline: as §1

[4] = compound: CN1C=C(C2=CC=CC=C21)/C=C\3/C4=C(C=CC=N4)NC3=O + Cc1nc(Nc2ncc(C(=O)Nc3c(C)cccc3Cl)s2)cc(N2CCN(CCO)CC2)n1 [Dasatinib] (partner 0.075 µM)
Outline: as §1

Row | Cell Line | relative viability ([1]; first compound 0.02 µM) | relative viability ([1]; first compound 0.06325 µM) | relative viability ([1]; first compound 0.6325 µM) | relative viability ([1]; first compound 2 µM) | relative viability ([2]; first compound 0.0025 µM) | relative viability ([2]; first compound 0.007906 µM) | relative viability ([2]; first compound 0.025 µM) | relative viability ([2]; first compound 0.07906 µM) | relative viability ([2]; first compound 0.25 µM) | relative viability ([3]; first compound 0.0025 µM) | relative viability ([3]; first compound 0.007906 µM) | relative viability ([3]; first compound 0.025 µM) | relative viability ([3]; first compound 0.07906 µM) | relative viability ([3]; first compound 0.25 µM) | relative viability ([4]; first compound 0.02 µM) | relative viability ([4]; first compound 0.06325 µM) | relative viability ([4]; first compound 0.6325 µM) | relative viability ([4]; first compound 2 µM) | relative viability ([1]; first compound 0.2 µM) | relative viability ([4]; first compound 0.2 µM)
1 | NCI-H650 | 0.474 | 0.481 | 0.421 | 0.404 | 0.645 | 0.765 | 0.619 | 0.714 | 0.567 | 0.787 | 0.736 | 0.672 | 0.668 | 0.339 | 0.519 | 0.494 | 0.415 | 0.39 |  | 
2 | IA-LM |  |  |  |  |  |  |  |  |  | 0.771 | 0.407 | 0.16 | 0.141 | 0.112 |  |  |  |  |  | 
3 | A-427 | 0.261 | 0.309 | 0.275 | 0.348 | 0.373 | 0.287 | 0.212 | 0.242 | 0.143 | 0.924 | 0.757 | 0.659 | 0.658 | 0.502 | 0.696 | 0.664 | 0.644 | 0.86 |  | 
4 | NCI-H2347 |  | 0.374 | 0.318 | 0.46 | 0.394 | 0.216 | 0.185 | 0.226 | 0.167 | 0.698 | 0.476 | 0.252 | 0.464 | 0.433 |  | 0.296 | 0.302 | 0.938 | 0.297 | 0.222
5 | NCI-H1793 | 0.393 | 0.41 | 0.403 | 0.368 | 0.245 | 0.236 | 0.204 | 0.199 | 0.199 |  |  |  |  |  | 0.429 | 0.341 | 0.353 | 0.381 | 0.314 | 0.337
6 | NCI-H1651 | 0.377 | 0.344 | 0.327 | 0.397 | 0.54 | 0.702 | 0.443 | 0.603 | 0.469 | 0.898 | 0.804 | 0.828 | 0.743 | 0.729 | 0.522 | 0.534 | 0.464 | 0.345 | 0.305 | 0.353
7 | HCC-78 | 0.545 | 0.709 | 0.525 | 0.614 | 0.366 | 0.361 | 0.313 | 0.343 | 0.333 | 0.318 | 0.275 | 0.252 | 0.285 | 0.215 | 0.317 | 0.578 | 0.34 | 0.37 |  | 
8 | NCI-H23 | 0.829 | 0.77 | 0.718 | 0.797 | 0.588 | 0.429 | 0.268 | 0.374 | 0.158 | 0.389 | 0.428 | 0.34 | 0.387 | 0.263 | 0.769 | 0.741 | 0.698 | 0.8 | 0.693 | 0.518
9 | LOU-NH91 | 0.727 | 0.624 | 0.66 | 0.645 | 0.735 | 0.654 | 0.568 | 0.53 | 0.478 | 0.722 | 0.667 | 0.714 | 0.636 | 0.501 | 0.58 | 0.501 | 0.516 | 0.466 | 0.623 | 0.464
10 | LXF-289 | 0.478 | 0.515 | 0.551 | 0.522 | 0.766 | 0.656 | 0.452 | 0.453 | 0.243 | 0.738 | 0.711 | 0.608 | 0.531 | 0.353 | 0.203 | 0.197 | 0.2 | 0.202 | 0.467 | 0.184
11 | NCI-H460 | 0.553 | 0.526 | 0.56 | 0.571 | 0.557 | 0.332 | 0.244 | 0.141 | 0.0441 | 0.857 | 0.552 | 0.476 | 0.289 | 0.0283 | 0.648 | 0.448 | 0.44 | 0.459 | 0.52 | 0.388
12 | NCI-H1792 | 0.442 | 0.245 | 0.297 | 0.237 | 0.565 | 0.62 | 0.745 | 0.618 | 0.51 | 0.92 | 0.949 | 0.738 | 0.553 | 0.488 | 0.816 | 0.93 |  | 0.66 |  | 0.74
13 | EMC-BAC-2 | 0.538 | 0.525 | 0.475 | 0.533 | 0.452 | 0.488 | 0.381 | 0.511 | 0.359 | 0.755 | 0.782 | 0.765 | 0.732 | 0.482 | 0.356 | 0.323 | 0.332 | 0.407 | 0.522 | 0.32
14 | CAL-12T | 0.507 | 0.537 | 0.612 | 0.601 | 0.543 | 0.333 | 0.224 | 0.353 | 0.193 | 0.651 | 0.853 | 0.434 | 0.367 | 0.213 | 0.501 | 0.302 | 0.285 | 0.273 | 0.613 | 0.347
15 | ChaGo-K-1 | 0.419 | 0.492 | 0.522 | 0.471 | 0.558 | 0.488 | 0.51 | 0.423 | 0.403 | 1.13 | 1.07 | 1.1 | 1.01 | 0.761 | 0.477 | 0.544 | 0.587 | 0.576 | 0.41 | 0.418
16 | COR-L 105 | 0.518 | 0.444 | 0.489 | 0.486 | 0.583 | 0.477 | 0.309 | 0.333 | 0.295 | 0.729 | 0.605 | 0.374 | 0.329 | 0.285 | 0.306 | 0.298 | 0.34 | 0.367 | 0.496 | 0.273
17 | NCI-H1944 | 0.21 | 0.181 | 0.181 | 0.167 | 0.359 | 0.309 | 0.318 | 0.279 | 0.23 | 1 | 0.763 | 0.762 | 0.629 | 0.326 | 0.214 | 0.215 | 0.194 | 0.217 |  | 
